Results reported in PMC2131780, “A Tale of Switched Functions: From Cyclooxygenase Inhibition to M-Channel Modulation in New Diphenylamine Derivatives” (PLoS ONE, 2007).

Legend:
[1] = molecular target: T1, Kv7.2/3 K+ channels (M-channels) (Homo sapiens, UniProt O43525+O43526); assay: Whole-cell patch-clamp of recombinant Kv7.2/3 channels in CHO cells; type: cell-based; conditions: for ΔV50 (mV), left-shift in half-activation potential: Kv7.2/3 in CHO cells; for M-channels (Kv7.2/Kv7.3) effect (opener / blocker / inactive): Kv7.2 and Kv7.3 coexpressed in CHO cells; for EC50: concentration-dependent left-shift ΔV50, sigmoidal fit, read-out: M-channel opener potency EC50
T1 construct: expressed in transfected cells; host or cells: CHO cells
T1 sequence (O43526 whole entry): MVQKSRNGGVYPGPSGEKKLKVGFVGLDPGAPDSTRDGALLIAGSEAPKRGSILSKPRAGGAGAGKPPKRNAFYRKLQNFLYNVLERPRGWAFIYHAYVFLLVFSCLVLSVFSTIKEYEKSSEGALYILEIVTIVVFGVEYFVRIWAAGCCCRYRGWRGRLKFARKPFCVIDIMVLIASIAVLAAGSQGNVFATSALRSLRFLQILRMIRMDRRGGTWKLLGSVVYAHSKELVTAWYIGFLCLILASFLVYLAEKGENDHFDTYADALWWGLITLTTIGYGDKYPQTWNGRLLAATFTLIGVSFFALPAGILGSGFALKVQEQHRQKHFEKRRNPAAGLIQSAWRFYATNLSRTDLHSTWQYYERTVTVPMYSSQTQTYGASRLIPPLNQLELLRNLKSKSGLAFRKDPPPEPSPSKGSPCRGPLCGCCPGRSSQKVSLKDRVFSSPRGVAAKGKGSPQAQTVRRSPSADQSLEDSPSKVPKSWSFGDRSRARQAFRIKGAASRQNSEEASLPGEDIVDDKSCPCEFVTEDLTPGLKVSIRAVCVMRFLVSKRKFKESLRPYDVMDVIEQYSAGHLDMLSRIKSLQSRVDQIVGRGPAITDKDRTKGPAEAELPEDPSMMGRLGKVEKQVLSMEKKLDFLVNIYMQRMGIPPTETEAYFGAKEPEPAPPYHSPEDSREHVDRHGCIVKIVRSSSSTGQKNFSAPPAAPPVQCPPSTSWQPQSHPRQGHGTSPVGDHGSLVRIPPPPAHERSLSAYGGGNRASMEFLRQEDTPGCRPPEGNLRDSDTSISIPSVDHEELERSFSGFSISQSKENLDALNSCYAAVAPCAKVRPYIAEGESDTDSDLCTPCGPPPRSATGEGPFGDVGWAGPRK
T1 sequence (O43525 whole entry): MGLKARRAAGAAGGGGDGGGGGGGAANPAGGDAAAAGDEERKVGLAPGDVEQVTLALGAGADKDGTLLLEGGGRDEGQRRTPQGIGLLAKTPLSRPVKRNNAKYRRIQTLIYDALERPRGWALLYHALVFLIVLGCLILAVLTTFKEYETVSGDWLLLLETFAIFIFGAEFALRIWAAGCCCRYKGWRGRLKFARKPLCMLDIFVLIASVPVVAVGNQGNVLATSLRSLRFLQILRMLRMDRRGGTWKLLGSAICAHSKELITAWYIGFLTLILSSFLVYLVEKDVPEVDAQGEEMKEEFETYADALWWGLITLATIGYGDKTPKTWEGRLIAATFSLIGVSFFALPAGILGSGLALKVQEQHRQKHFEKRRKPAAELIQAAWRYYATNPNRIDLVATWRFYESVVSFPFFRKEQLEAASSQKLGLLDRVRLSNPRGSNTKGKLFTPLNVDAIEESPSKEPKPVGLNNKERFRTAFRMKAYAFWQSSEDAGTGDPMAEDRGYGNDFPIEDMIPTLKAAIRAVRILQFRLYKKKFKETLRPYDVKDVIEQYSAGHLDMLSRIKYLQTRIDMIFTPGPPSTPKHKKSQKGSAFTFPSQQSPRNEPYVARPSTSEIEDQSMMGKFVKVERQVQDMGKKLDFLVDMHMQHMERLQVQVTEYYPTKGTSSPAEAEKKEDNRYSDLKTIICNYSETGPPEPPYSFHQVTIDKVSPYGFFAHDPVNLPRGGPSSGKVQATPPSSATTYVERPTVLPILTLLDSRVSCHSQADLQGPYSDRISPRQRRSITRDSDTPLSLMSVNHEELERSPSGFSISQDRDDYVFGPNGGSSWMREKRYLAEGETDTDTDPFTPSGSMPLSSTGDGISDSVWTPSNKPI
Procedure: Chinese hamster ovary (CHO) cells were grown in Dulbecco's modified Eagle's medium (DMEM) supplemented with 2 mM glutamine, 10% fetal calf serum and antibiotics. Briefly, 40,000 cells seeded on poly-D-lysine-coated glass coverslips (13 mm diameter) in a 24-multiwell plate were transfected with pIRES-CD8 (0.5 µg) as a marker for transfection, and with Kv7.2 (0.5 µg) and Kv7.3 (0.5 µg). For electrophysiology, transfected cells were visualized approximately 40 hours following transfection, using anti-CD8 antibody-coated beads. Transfection was performed using Fugene 6 (Roche, Indianapolis IN, USA) according to the manufacturer's protocol.
Voltage-clamp recordings in CHO cells were performed, using the whole-cell configuration of the patch-clamp technique. Signals were amplified using an Axopatch 200B patch-clamp amplifier (Molecular Devices, Sunnyvale, CA), sampled at 2 kHz and filtered at 800 Hz via a 4-pole Bessel low pass filter. […] The patch pipettes were pulled from borosilicate glass (Warner Instrument Corp, USA) with a resistance of 2–5 MΩ. For K^+ current recordings in CHO cells, the intracellular pipette solution contained (in mM): 130 KCl, 1 MgCl2, 5 K2ATP, 5 EGTA, 10 HEPES, adjusted with KOH to pH 7.4 (290 mOsm). The extracellular solution contained (in mM): 140 NaCl, 4 KCl, 1.8 CaCl2, 1.2 MgCl2, 11 glucose, 5.5 HEPES, adjusted with NaOH to pH 7.4 (310 mOsm). Series resistances (3–13 MΩ) were compensated (75–90%) and periodically monitored.
Data analysis was performed using the Clampfit program (pClamp 9.2, Molecular Devices), Microsoft Excel (Microsoft) and Prism 4.0 (GraphPad). Chord conductance (G) was calculated by using the following equation: [drawing 1] where I corresponds to the current amplitude measured at the end of the pulse and Vrev, the calculated reversal potential. G was estimated at various test voltages V and then, normalized to a maximal conductance value, Gmax. Activation curves were fitted by one Boltzmann distribution: [drawing 2] where V50 is the voltage at which the current is half-activated and s is the slope factor. All data were expressed as mean±SEM. Statistically significant differences were assessed by Student's t-test. Analysis of sEPSCs and sIPSCs was done using the Clampfit program (pClamp 9.2, Molecular Devices) and included evaluation of the individual events as well as the average event amplitude and the integral of the event (total charge transfer).

[2] = system: MES-induced tonic hind limb extension; assay: Maximal electroshock seizure (MES) model; type: in vivo, mouse; conditions: mice, intraperitoneal, 30 min before electroshock; not shown
Procedure: This test is generally thought to be a model of generalized tonic-clonic seizure in human.
The anti-convulsant effect was measured by the maximal electroshock seizure model (MES) in ICR mice as previously described. The procedures followed for experimentation and maintenance of the animals were approved by the animal research ethics committee of Tel Aviv University and in accordance with the Guide for the Care and Use of Laboratory Animals (1996, National Academy of Sciences, Washington DC). Briefly, maximal electroshock was induced in adult mice by means of two transcorneal electrodes delivering an alternative current of 50 mA at 60 Hz for 0.2 sec using rodent shocker (Hugo Sachs Electronik, type 221). […] The drugs dissolved in 0.9% saline were administered intraperitoneally 30 min before the electroshock was performed. Animals failing to show tonic hind limb extension were scored as protected and were expressed in percentage.

[3] = system: COX enzymes (CT26 mouse colon adenocarcinoma cells); assay: COX inhibition, PGE2 production in CT26 cells; type: cell-based; conditions: for IC50: average of two experiments in triplicate, read-out: COX inhibition (IC50, µM) CT26
Text: (§1) In addition, the aromatic rings of the diphenylamine moiety were substituted with different electron donating or withdrawing groups. In a first screen, two parameters were checked: (a) the non-selective inhibition of COX-1/COX-2 enzyme activities, measured by the production of PGE2 in cultured mouse colon adenocarcinoma (CT26) and mouse Lewis lung carcinoma cells (D122) cells; (b) the M-channel activity, measured by the heterologous coexpression of Kv7.2 and Kv7.3 subunits in Chinese hamster ovary (CHO) cells.
(§2) Mouse colon adenocarcinoma CT26 and mouse Lewis lung carcinoma D122 cells were grown in DMEM (D122) or RPMI (CT26) supplemented with 10% fetal calf serum, 4% glutamine, 1% penicillin-streptomycin-nystatin and 3% non essential amino acids (D122) and maintained in a humidified 37°C incubator with 5% CO2. For the COX assays, cells were grown onto 24 multiwell plates. Before the assay, cells were washed with serum-free medium; then tested compounds were added to the medium and incubated for 30 min at 37°C after which 30 µM arachidonic acid was added and incubated for additional 20 min. At the end of the incubations, 10 µM indomethacin was added to stop the reaction and medium was transferred to another 24 multiwell plate for measuring PGE2 production by radioimmunoassay (DuPont-NEN; Boston, MA) according to manufacturer protocol. Protein determination was assayed on scraped cells and was used to normalize the amount of PGE2 production. Assays with purified ovine COX-1 and human recombinant COX-2 were performed using the COX inhibitor screening assay (Cayman chemical company, Ann Arbor, MI), according to manufacturer protocol.

[4] = system: COX enzymes (D122 mouse Lewis lung carcinoma cells); assay: COX inhibition, PGE2 production in D122 cells; type: cell-based; conditions: average of two experiments in triplicate
Text: as §1, §2

Row | Structure (SMILES) | M-channels (Kv7.2/Kv7.3) effect (opener / blocker / inactive) [1] | EC50 [1] [µM] | further results
1 | Cc1ccc(Cl)c(Nc2ccccc2C(=O)O)c1Cl [Meclofenamic acid, reference compound] | opener | 25 | ΔV50 (mV), left-shift in half-activation potential [1]: −22.7 mV; M-channels (Kv7.2/Kv7.3) effect (opener / blocker / inactive) ([1]; listed as meclofenamate): openers
2 | COc1ccc2cc([C@H](C)C(=O)O)ccc2c1 [naproxen, reference compound] | do not activate |  | 
3 | O=C1NC(=O)C(c2ccccc2)(c2ccccc2)N1 [phenytoin] |  |  | dose that fully prevented hind limb extension [2]: 20 mg/kg
4 | Cc1cccc(Nc2ccccc2C(=O)O)c1C [mefenamate, reference compound] | openers |  | 
5 | O=C(Cc1cc([N+](=O)[O-])ccc1Nc1c(Cl)cccc1Cl)NCCO [Compound 7] | opener | 17 | effect on COX activity (Figure 1) [3]: completely unaffected; IC50 [3]: > 50 µM; IC50 [4]: > 50 µM; ΔV50 (mV), left-shift in half-activation potential [1]: −12.2 mV
6 | CC(C(=O)O)c1ccc(-c2ccccc2)c(F)c1 (stereo not shown) [flurbiprofen, reference compound] | do not activate |  | 
7 | O=C(O)c1ccccc1Nc1cccc(C(F)(F)F)c1 [flufenamate, reference compound] | openers |  | 
8 | CC(C(=O)O)c1cccc(Oc2ccccc2)c1 (stereo not shown) [fenoprofen, reference compound] | do not activate |  | 
9 | CCCC(CCC)C(=O)O [sodium valproate] |  |  | dose that fully prevented hind limb extension [2]: 500 mg/kg
10 | O=C(O)Cc1ccccc1Nc1c(Cl)cccc1Cl [Diclofenac, reference compound] | opener | 2.6 | IC50 [3]: 0.003 µM; IC50 [4]: 0.1 µM; M-channels (Kv7.2/Kv7.3) effect (opener / blocker / inactive) ([1]; listed as diclofenac): openers
